These results are taken from article PMC5481270, “Antiparasitic Sesquiterpenes from the Cameroonian Spice Scleria striatinux and Preliminary In Vitro and In Silico DMPK Assessment” (Natural Products and Bioprospecting, 2017).

In brackets after ≈: the same amount, converted by molar mass. Read-outs that look alike come from different tables or passages of the source.

Series [1] relates to Plasmodium falciparum D-6 (chloroquine-sensitive, Sierra Leonian clone). The experiment in a line: Antiplasmodial [3H] hypoxanthine incorporation assay, D6 clone. It is filed as cell-based. From the text: (§1) The antiplasmodial testing of the extracts was run in duplicate. The method was based upon the [^3H] hypoxanthine incorporation assay, as described by Desjardins and modified by Ridley and the data fitted to generate IC50 and IC90 values, corresponding to the concentrations required to cause 50 and 90% inhibition of parasite growth respectively. The Plasmodium falciparum clones used for the testing were W-2 and D-6. W-2 strain otherwise known as the Indochina clone is known to be resistant to chloroquine, pyrimethamine, sulfadoxine and quinine. Meanwhile the D-6 otherwise known as the Sierra Leonian clone is resistant to mefloquine but sensitive to the above named drugs. Chloroquine, quinine and artesunate were used as reference drugs. […] Compounds 1 and 2 (due to their quantity) were subsequently tested against T. cruzi, L. donovani and T. b. rhodensiense, parasites responsible for Chagas disease, leishmaniasis and human African trypanosomiasis (sleeping sickness) respectively with Benznidazole, Miltefosine and Melarsoprol included as reference drugs. Cytotoxicity was evaluated using HT-29 (human […] carcinoma) with podophyllotoxin as reference drug.
(§2) The crude S. striatinux extracts (MeOH and CH2Cl2) were tested at the Walter Reed Army Institute of Research (WRAIR), Washington. DC. […] The method used for antiplasmodial testing, was based upon [^3H] hypoxanthine incorporation assay, previously described in the literature. Both chloroquine-sensitive (NF54, D6) and chloroquine-resistant (K1, W2) strains and chloroquine, quinine and artesunate used as positive references. L. donovani MHOM-ET-67/L82 (obtained from the spleen of an infected hamster and grown in axenic cultures) was used for the antileishmanial testing while T. brucei squib 427 strain (suramin-sensitive) was used for the antitrypanosomal testing. Cytotoxicity test was done using HT-29 (human […] carcinoma), with podophyllotoxin included as reference drug at a concentration of 0.1 μg/mL.

Series [2] relates to Plasmodium falciparum NF54 (chloroquine-sensitive). Kind of series: Antiplasmodial [3H] hypoxanthine incorporation assay, NF54 strain. It counts as cell-based. Particulars: for IC50: Plasmodium falciparum.
Excerpt: as §1, §2

Series [3] concerns Plasmodium falciparum W-2 (chloroquine-resistant, Indochina clone). The experiment in a line: Antiplasmodial [3H] hypoxanthine incorporation assay, W2 clone. It is filed as cell-based.
Excerpt: as §1, §2

Series [4] can be described thus: Metabolic stability in human liver microsomes. It is filed as in vitro ADME. Particulars: for Metabolites detected: LCMS; for microsomal CLint at 2 µM: NADPH dependent degradation, 37 °C, read-out: In vitro CL int; for Microsome predicted E H (hepatic extraction ratio): Q = 20.7 mL/min/kg; for CLint scaled at 2 µM: scaled from in vitro CL int, read-out: Microsome predicted CL int. An excerpt:
The objective here was to determine the in vitro metabolic stability of these two compounds using human liver microsomes as a preliminary indication of their likely in vivo metabolic clearance and potential metabolic products. The method used was as outlined in Obach. […] The compounds maybe susceptible to […] in more complicated test systems based on their structure, since both compounds 1 and 2 contain an α, β-unsaturated ketone moiety with the potential to act as a Michael acceptor (by forming adducts with endogenous nucleophiles such as glutathione). However, this was not investigated and would be the subject of future studies in which we hope to use a simple chemical system (i.e., in aqueous buffer containing free glutathione) or examining the extent of degradation in whole blood.
Test compounds (2 µM) were incubated at 37 °C with human liver microsomes [purchased from BD Gentest (Woburn, MA) using microsome lot # 41207]. The reaction was initiated by the addition of an NADPH-regenerating system (i.e. NADPH is the cofactor required for CYP450-mediated metabolism) and quenched at various time points over the incubation period by the addition of acetonitrile. Additional samples co-activated by NADPH and UDPGA (the co-factor for glucoronidation), were included in the incubation for the qualitative assessment of the potential for glucoronide formation. The relative loss of parent compound and formation of metabolic products was determined using a single quadrupole LCMS instrument (Waters, Manchester, UK).
Test compound concentration versus time data was fitted to an exponential decay function to determine the first-order rate constant for substrate depletion (k). Each substrate depletion rate constant was then used to calculate: (1) an initial in vitro clearance value (in vitro, CL int,in vitro); (2) an intrinsic clearance value (CL int); and (3) a hepatic extraction ratio (E H)1 CLint,invitro=k/microsomalproteincontent(0.4mgprotein/mL) 2 CLint=CLint,invitro×livermass(g)/bodyweight(kg)×45mgmicrosomalprotein/glivermass 3 EH=CLint/Q+CLint For Eqs.

Series [5] in a line: Chromatographic eLogD technique. Particulars: for chromatographic logD: SUPELCOSIL LC-ABZ column with octanol saturated mobile phase, pH 7.4. It is filed as physicochemical. On the procedure:
The partition coefficients of the two compounds were measured via the previously described chromatographic technique. […] The LogD7.4 value for compound 2 of 0.35 is towards the lower end of the scale normally associated with “drug-like” molecules. […] For compound 2, parameters were also calculated for its terminal aldehyde tautomer, 2a, which is presumed to be the major form of the compound. The overall calculated parameters fall within the ranges associated with “drug-like” molecules.
(§3) The kinetic solubility of test compounds was examined by spiking compound in DMSO into either pH 6.5 phosphate buffer or 0.01 M HCl (approximately pH 2.0) with the final DMSO concentration being 1%. Samples were then analysed via nephelometry to determine a solubility range [23]. Effective log D values were measured using a chromatographic method employing a SUPELCOSIL LC-ABZ column using an octanol saturated mobile phase at pH 7.4 [23]. Theoretical physicochemical values were determined using the ACD logD suite of software programs. The molecular weight (MW) should ideally be ≤500 for good membrane permeability, while the hydrogen bond donor/acceptor properties should be respectively ≤5 and ≤10 respectively. The number of single bonds that are not in a ring or constrained system and are not bonded to a hydrogen atom (often referred to as the number of rotatable single bonds) should be ≤10 for acceptable oral bioavailability. The polar surface area (PSA) was calculated using a simplified 2-dimensional modeling approach, which has been validated against a more sophisticated 3-dimentional modeling strategy. For acceptable oral drug absorption and membrane permeability, the PSA value should be ≤120 Å^2. […] The 1-octanol/water partition coefficient were calculated for ionisable compounds. The values were calculated on the basis of log P and pKa values. Log D values are quoted with respect to a relevant pH, thereby providing a partition coefficient profile under physiologically relevant conditions.

A short description of series [6]: Kinetic solubility, turbidimetric method (nephelometry). Particulars: kinetic from dmso stock, 1% DMSO. It counts as physicochemical. On the procedure: The solubility of the compounds was estimated via the turbidimetric method using standard test buffers (pH 2.0 and pH 6.5) as previously described. […] There was no significant change in ionization in the molecule across this pH range.
as §3

The test system of series [7] is Plasmodium falciparum K1 (chloroquine-resistant). Kind of series: Antiplasmodial [3H] hypoxanthine incorporation assay, K1 strain. It counts as cell-based. The conditions noted are these: P. falciparum K1, results from STI.
Excerpt: as §1
(§4) The crude S. striatinux extracts (MeOH and CH2Cl2) were tested at the Walter Reed Army Institute of Research (WRAIR), Washington. DC. […]

Series [8] has as its system T. b. rhodesiense. The experiment in a line: Antitrypanosomal testing, T. b. rhodesiense. It counts as cell-based, Trypanosoma brucei rhodesiense. Particulars: calculated versus cytotoxicity (HT-29).
Excerpt: as §1, §4

The subject of series [9] is T. cruzi. The experiment in a line: Antitrypanosomal testing, T. cruzi. It counts as cell-based, Trypanosoma cruzi. The conditions noted are these: calculated versus cytotoxicity (HT-29).
Excerpt: as §1, §4

Series [10] deals with L. donovani MHOM-ET-67/L82. Kind of series: Antileishmanial testing. It counts as cell-based, Leishmania donovani. Particulars: calculated versus cytotoxicity (HT-29).
Excerpt: as §1, §4

Setting [11] is: P. falciparum D6, mean of 2–3 determinations, results from WRAIR, read-out: IC50 D6.
Setting [12] is: P. falciparum NF54, results from STI, read-out: IC50 NF54.
Where [13] appears, read: P. falciparum W2, mean of 2–3 determinations, results from WRAIR, read-out: IC50 W2.
Where [14] appears, read: aqueous buffer, pH 6.5 phosphate buffer, read-out: Solubility pH 6.5.
Where [15] appears, read: simulated gastric fluid, pH 2 (0.01 M HCl), read-out: Solubility pH 2.

Regarding `C=CC(C)(O)C1C[C@H]2C(C)(C)C(=O)C=C[C@]2(C)OO1` (some centres unmarked) [Compound 6], the IC50 in [1] (setting [11]) was 0.483 µg/mL (≈ 1.81 µM); in series [2] (setting [12]) it was above 1 µg/mL; in [3] (setting [13]) it was 0.47 µg/mL (≈ 1.76 µM).
As for `C=C[C@H]1C[N@@]2CC[C@H]1C[C@H]2[C@H](O)c1ccnc2ccc(OC)cc12` [Quinine, reference compound], the IC50 in [1] (setting [11]) came to 0.027 µg/mL (≈ 0.0832 µM); in series [3] (setting [13]), 0.097 µg/mL (≈ 0.299 µM).
As to `C[C@H]1[C@H](OC(=O)CCC(=O)O)O[C@@H]2O[C@@]3(C)CC[C@H]4[C@H](C)CC[C@@H]1[C@@]24OO3` [Artesunate, reference compound], in [2] (setting [12]), the IC50 stood at 0.0019 µg/mL (≈ 0.00494 µM).
Regarding `C=CC(C)(O)C(=O)C[C@H]1C(C)(C)C(=O)C=C[C@]1(C)O` (some centres unmarked) [Compound 4], in [2] (setting [12]), the IC50 was above 1 µg/mL.
For `C/C(=C\CO)[C@H]1C[C@H]2C(C)(C)C(=O)C=C[C@]2(C)OO1` [Compound 1, okundoperoxide], in series [4], the Metabolites detected entry is recorded as “None detected”, the microsomal CLint at 2 µM was 12.3 µL/min/mg, the “Microsome predicted E H (hepatic extraction ratio)” value is given as 0.41 and the CLint scaled at 2 µM is 14.3 mL/min/kg. Besides, in [5], the “elogD pH 7.4” value was 1.71 and the chromatographic logD is 1.71. In addition, in series [6] (setting [14]), the solubility is above 100 µg/mL. In addition, the solubility in series [6] (setting [15]) was above 100 µg/mL. Also, the IC50 in series [7] is 0.661 µg/mL (≈ 2.48 µM). For the same compound, the “SI (selective index) T. b. rhod” value in series [8] is recorded as 3.4. Further, the IC50 in series [1] (setting [11]) is 0.195 µg/mL (≈ 0.732 µM). Also, in series [9], the “SI (selective index) T. cruzi” value is 1. Further, the IC50 in series [2] (setting [12]) stood at 0.304 µg/mL (≈ 1.14 µM). Further, in series [10], the “SI (selective index) L. donovani” value is listed as 11.4. In series [3] (setting [13]), the IC50 is 0.268 µg/mL (≈ 1.01 µM).
With `C=CC(C)(O)C(=O)C[C@H]1C(C)(C)C(=O)C=C[C@]1(C)O` (some centres unmarked) [Compound 5], in series [2] (P. falciparum NF54, results from STI), the “IC50 NF54” value is above 1 µg/mL.
`CCN(CC)CCCC(C)Nc1ccnc2cc(Cl)ccc12` (centres unmarked) [Chloroquine, reference compound]: the IC50 was determined as 0.003 µg/mL (≈ 0.00938 µM) in series [1] (D6, read-out: IC50 D6); 0.0023 µg/mL (≈ 0.00719 µM) in series [2] (NF54, read-out: IC50 NF54); 0.084 µg/mL (≈ 0.263 µM) in [3] (W2, read-out: IC50 W2).
Take `CCCCCCCCCC(=O)OC/C=C(\C)C(=O)C[C@H]1C(C)(C)C(=O)C=C[C@]1(C)O` [Compound 3]: the IC50 was 0.539 µg/mL (≈ 1.28 µM) in series [1] (setting [11]), above 1 µg/mL in series [2] (setting [12]) and 0.46 µg/mL (≈ 1.09 µM) in [3] (setting [13]).
Turning to `C/C(=C\CO)C(=O)C[C@H]1C(C)(C)C(=O)C=C[C@]1(C)O` [Compound 2, sclerienone C], in series [4], the Metabolites detected entry is listed as “None detected”, the microsomal CLint at 2 µM was found to be 7.4 µL/min/mg, the “Microsome predicted E H (hepatic extraction ratio)” value is given as 0.29 and the CLint scaled at 2 µM was 8.6 mL/min/kg. In [5], the “elogD pH 7.4” value stood at 0.35 and the chromatographic logD worked out at 0.35. For the same compound, the solubility in [6] (setting [14]) was above 100 µg/mL. Moreover, the solubility in series [6] (setting [15]) was 50 to 100 µg/mL (≈ 188 to 375 µM). Moreover, the IC50 in series [7] was found to be 0.511 µg/mL (≈ 1.92 µM). Further, in series [8], the “SI (selective index) T. b. rhod” value was 8.3. In addition, in series [1] (setting [11]), the IC50 worked out at 0.267 µg/mL (≈ 1 µM). The “SI (selective index) T. cruzi” value in [9] is 0.74. For the same compound, in series [2] (setting [12]), the IC50 was found to be 0.439 µg/mL (≈ 1.65 µM). Also, in [10], the “SI (selective index) L. donovani” value is given as 5.9. The IC50 in series [3] (setting [13]) was 0.354 µg/mL (≈ 1.33 µM).
